Laboratory results from patent US20080200404A1, “Novel Antimalarial 9A-Carbamoyl-Aminoalkyl and 9A-Thiocarbamoyl-Aminoalkyl Azalides” (priority 2005, published 2008).
Values after ≈ are worked out from the molar mass of the structure shown. Where two headings read alike, the source gives them in different places.

Tests used:
Type in all cases: cell-based
[1] = test system: Plasmodium falciparum TM91C235; test: In vitro antimalarial [3H]-hypoxanthine incorporation assay, TM91C235; details: Plasmodium falciparum; P. falciparum TM91C235 (multiple drug resistant isolate), 72 hours exposure
Excerpt: (§1) The in vitro screens for intrinsic antimalarial activity were based on modifications of the procedures described by Desjardins R E, Canfield C J, Haynes J D, Chulay J D. (Quantitative assessment of antimalarial activity in vitro by a semiautomated microdilution technique. Antimicrob Agents Chemother. 1979 December; 16(6):710-8.), Chulay J D, Haynes J D, Diggs C L. (Plasmodium falciparum: Assessment of in vitro growth by [3H]hypoxanthine incorporation. Exp. Parasitol. 1983 55:138-146.), and Milhous W K, Weatherly N F, Bowdre J H, Desjardins R E. (In vitro activities of and mechanisms of resistance to antifol antimalarial drugs. Antimicrob Agents Chemother. 1985 April; 27(4):525-30.). The system was limited to the assessment of the intrinsic activity against the erythrocytic asexual life cycle (blood schizontocides). Two Plasmodium falciparum clones from CDC/Indochina III (W-2) and CDC/Sierra Leone I (D-6) (Oduola A M, Weatherly N F, Bowdre J H, Desjardins R E. Plasmodium falciparum: cloning by single-erythrocyte micromanipulation and heterogeneity in vitro. Exp Parasitol. 1988 66(1):86-95.) were used for all assays. TM91C235, a multiple drug resistant isolate from Thailand, was used for the prescreening assay. W-2 is resistant to chloroquine, quinine, and pyrimethamine and susceptible to mefloquine. D-6 tends to be more resistant to mefloquine and susceptible to chloroquine, quinine, and pyrimethamine. All documents cited in this paragraph are incorporated by reference in their entirety.
(§2) All parasites were maintained in continuous long term cultures in RPMI-1640 medium supplemented with 6% washed human A positive (A+)(erythrocytes, 25 mM Hepes, […], and 10% heat inactivated A+human plasma or ALBUMAX® (lipid-rich bovine serum albumin; Invitrogen, Carlsbad, Calif.). All cultures and assays were conducted at 37° C. under an atmosphere of 5% CO2 and 5% O2, with a balance of N2.
The prescreening assay uses TM91C235 diluted at a 0.4% parasitemia in a 1% hematocrit in folic acid free and p-aminobenzoic acid free media RPMI-1640 and ALBUMAX®. One mg of the compound is typically dissolved in 100 μl of dimethyl sulfoxide (DMSO). The compound is further diluted in culture medium (FF) with ALBUMAX® for the first initial starting concentration. The rest of the stock drug solution was kept at −70° C. The isolate was preexposed, in duplicate, at three concentrations (25,000 ng/ml, 2,500 ng/ml, and 25 ng/ml) of the test compound for 48 hr in a 96-well microtiter plate (MTP) using the BIOMEK® 2000 automated laboratory workstation. Each MTP contains chloroquine as control to assess the relative activity of the compound and to monitor the response of TM91C235.
(§3) After the preincubation, [^3H]-hypoxanthine was added to each well of the MTP. (The assay relies on the incorporation of radiolabeled hypoxanthine by the parasites, which indicates reproduction, and inhibition of isotope incorporation was attributed to activity of known or candidate antimalarial drugs). After 72 hr of total incubation time, the MTP were frozen to lyse the erythrocytes and parasites. The parasite DNA was recovered by harvesting the lysate onto glass-fiber filter plates using a Packard FilterMate™ Cell Harvester. The radioactivity was counted on a Packard TopCount™ microplate scintillation counter. The results were recorded as counts per minutes (CPM) per well at each drug concentration divided by the arithmetic mean of the CPM from the three untreated infection parasite control wells.
The serial dilution assay was conducted using the same assay conditions and stock solution of the compound used for the preliminary screen, described above. Both the D-6 and the W-2 clones were used. The compounds were diluted two-fold over 11 different concentration ranges with a starting concentration that was based on the preliminary screen. […]

[2] = test system: Plasmodium falciparum clone CDC/Sierra Leone I (D-6); test: In vitro antimalarial [3H]-hypoxanthine incorporation serial dilution assay, D6; details: Plasmodium falciparum, D6, 72 h, P. falciparum D6, 72 hours exposure
Excerpt: as §1, §2, §3
(§4) The serial dilution assay was conducted using the same assay conditions and stock solution of the compound used for the preliminary screen, described above. Both the D-6 and the W-2 clones were used. The compounds were diluted two-fold over 11 different concentration ranges with a starting concentration that was based on the preliminary screen. For each drug, the concentration response profile was determined and 50% inhibitory concentrations (IC50) were determined by using a non-linear, logistic dose response analysis program. […] For each assay, the IC50 for each clone was determined against the known antimalarials chloroquine and mefloquine. These control values established the compound's relative parasite susceptibility profile compared to known antimalarials. […]
(§5) The in vitro potency of the compounds has been compared with that of azithromycin to better gauge compounds suitable for further testing. As described above, parasites were exposed for 72 hours. Data from the in vitro potency tests of azithromycin against the three parasite strains have been averaged, and these numbers have been used for identification of “active” macrolide compounds.

[3] = test system: Plasmodium falciparum clone CDC/Indochina III (W-2); test: In vitro antimalarial [3H]-hypoxanthine incorporation serial dilution assay, W2; details: Plasmodium falciparum; P. falciparum W2, 72 hours exposure
Excerpt: as §1, §2, §3, §4, §5

[4] = compared with azithromycin, read-out: IC50 D6 (class symbol)

SMILES	IC50 [1] [µg/mL]	IC50 ([2]; read-out: IC50 D6) [µg/mL]	IC50 [3] [µg/mL]	IC50 [2, 4] [µg/mL]
CC[C@H]1OC(=O)[C@H](C)[C@@H](O[C@H]2C[C@@](C)(OC)[C@@H](O)[C@H](C)O2)[C@H](C)[C@@H](O[C@@H]2O[C@H](C)C[C@H](N(C)C)[C@H]2O)[C@](C)(O)C[C@@H](C)CN(CCCNC(=S)Nc2cc(F)ccc2C)[C@H](C)[C@@H](O)[C@]1(C)O [Example 62]	0.11 (≈ 0.115 µM)	0.373 (≈ 0.389 µM)	0.0502 (≈ 0.0523 µM)	–
CC[C@H]1OC(=O)[C@H](C)[C@@H](O[C@H]2C[C@@](C)(OC)[C@@H](O)[C@H](C)O2)[C@H](C)[C@@H](O[C@@H]2O[C@H](C)C[C@H](N(C)C)[C@H]2O)[C@](C)(O)C[C@@H](C)CN(CCCNC(=O)Nc2ccc(CC#N)cc2)[C@H](C)[C@@H](O)[C@]1(C)O [Example 63]	0.542 (≈ 0.571 µM)	–	0.141 (≈ 0.149 µM)	> 0.797
CC[C@H]1OC(=O)[C@H](C)[C@@H](O[C@H]2C[C@@](C)(OC)[C@@H](O)[C@H](C)O2)[C@H](C)[C@@H](O[C@@H]2O[C@H](C)C[C@H](N(C)C)[C@H]2O)[C@](C)(O)C[C@@H](C)CN(CCCNC(=O)Nc2ccc(C(C)=O)cc2)[C@H](C)[C@@H](O)[C@]1(C)O.O=CO [Example 65]	0.398	–	0.708	> 0.797
CC[C@H]1OC(=O)[C@H](C)[C@@H](O[C@H]2C[C@@](C)(OC)[C@@H](O)[C@H](C)O2)[C@H](C)[C@@H](O[C@@H]2O[C@H](C)C[C@H](N(C)C)[C@H]2O)[C@](C)(O)C[C@@H](C)CN(CCCNC(=O)NCc2ccc(OC)cc2)[C@H](C)[C@@H](O)[C@]1(C)O [Example 67]	0.462 (≈ 0.484 µM)	–	0.195 (≈ 0.204 µM)	> 0.797
CC[C@H]1OC(=O)[C@H](C)[C@@H](O[C@H]2C[C@@](C)(OC)[C@@H](O)[C@H](C)O2)[C@H](C)[C@@H](O[C@@H]2O[C@H](C)C[C@H](N(C)C)[C@H]2O)[C@](C)(O)C[C@@H](C)CN(CCCNC(=O)Nc2ccc(C(F)(F)F)cc2)[C@H](C)[C@@H](O)[C@]1(C)O.O=CO [Example 70]	0.0863	0.164	0.0765	–
CC[C@H]1OC(=O)[C@H](C)[C@@H](O[C@H]2C[C@@](C)(OC)[C@@H](O)[C@H](C)O2)[C@H](C)[C@@H](O[C@@H]2O[C@H](C)C[C@H](N(C)C)[C@H]2O)[C@](C)(O)C[C@@H](C)CN(CCCNC(=O)Nc2cc(F)cc3c2OCOC3)[C@H](C)[C@@H](O)[C@]1(C)O.O=CO [Example 82]	0.227	0.293	0.316	–
CC[C@H]1OC(=O)[C@H](C)[C@@H](O[C@H]2C[C@@](C)(OC)[C@@H](O)[C@H](C)O2)[C@H](C)[C@@H](O[C@@H]2O[C@H](C)C[C@H](N(C)C)[C@H]2O)[C@](C)(O)C[C@@H](C)CN(CCCNC(=O)Nc2ccccc2-c2ccccc2)[C@H](C)[C@@H](O)[C@]1(C)O.O=CO [Example 85]	0.142	0.262	0.209	–
CC[C@H]1OC(=O)[C@H](C)[C@@H](O[C@@H]2C[C@@H](C)[C@H](O)[C@](C)(OC)C2)[C@H](O)[C@@H](O[C@@H]2O[C@H](C)C[C@H](N(C)C)[C@H]2O)[C@](C)(O)C[C@@H](C)CN(CCCNC(=O)Nc2ccc(OCc3ccccc3)cc2)[C@H](C)[C@@H](O)[C@]1(C)O [Example 87]	0.148 (≈ 0.146 µM)	0.304 (≈ 0.299 µM)	0.178 (≈ 0.175 µM)	–

The remaining lines, values ahead:

IC50 [1] [µg/mL]	IC50 ([2]; read-out: IC50 D6) [µg/mL]	IC50 [3] [µg/mL]	IC50 [2, 4] [µg/mL]	SMILES
0.0915 (≈ 0.0962 µM)	0.253 (≈ 0.266 µM)	0.07 (≈ 0.0736 µM)	–	CC[C@H]1OC(=O)[C@H](C)[C@@H](O[C@H]2C[C@@](C)(OC)[C@@H](O)[C@H](C)O2)[C@H](C)[C@@H](O[C@@H]2O[C@H](C)C[C@H](N(C)C)[C@H]2O)[C@](C)(O)C[C@@H](C)CN(CCCNC(=O)Nc2ccc3c(c2)CCC3)[C@H](C)[C@@H](O)[C@]1(C)O [Example 64]
0.0746 (≈ 0.0783 µM)	0.214 (≈ 0.225 µM)	0.0676 (≈ 0.0709 µM)	–	CC[C@H]1OC(=O)[C@H](C)[C@@H](O[C@H]2C[C@@](C)(OC)[C@@H](O)[C@H](C)O2)[C@H](C)[C@@H](O[C@@H]2O[C@H](C)C[C@H](N(C)C)[C@H]2O)[C@](C)(O)C[C@@H](C)CN(CCCNC(=O)Nc2ccc(C(C)C)cc2)[C@H](C)[C@@H](O)[C@]1(C)O [Example 66]
0.254 (≈ 0.265 µM)	0.798 (≈ 0.835 µM)	0.106 (≈ 0.111 µM)	–	CC[C@H]1OC(=O)[C@H](C)[C@@H](O[C@H]2C[C@@](C)(OC)[C@@H](O)[C@H](C)O2)[C@H](C)[C@@H](O[C@@H]2O[C@H](C)C[C@H](N(C)C)[C@H]2O)[C@](C)(O)C[C@@H](C)CN(CCCNC(=O)Nc2ccc3c(c2)OCO3)[C@H](C)[C@@H](O)[C@]1(C)O [Example 68]
0.117	0.451	0.186	–	CC[C@H]1OC(=O)[C@H](C)[C@@H](O[C@H]2C[C@@](C)(OC)[C@@H](O)[C@H](C)O2)[C@H](C)[C@@H](O[C@@H]2O[C@H](C)C[C@H](N(C)C)[C@H]2O)[C@](C)(O)C[C@@H](C)CN(CCCNC(=O)Nc2cccc(Cl)c2)[C@H](C)[C@@H](O)[C@]1(C)O.O=CO [Example 80]
0.16	0.565	0.278	–	CC[C@H]1OC(=O)[C@H](C)[C@@H](O[C@H]2C[C@@](C)(OC)[C@@H](O)[C@H](C)O2)[C@H](C)[C@@H](O[C@@H]2O[C@H](C)C[C@H](N(C)C)[C@H]2O)[C@](C)(O)C[C@@H](C)CN(CCCNC(=O)Nc2cccc(F)c2)[C@H](C)[C@@H](O)[C@]1(C)O.O=CO [Example 81]
0.0618	0.0289	0.042	–	CC[C@H]1OC(=O)[C@H](C)[C@@H](O[C@H]2C[C@@](C)(OC)[C@@H](O)[C@H](C)O2)[C@H](C)[C@@H](O[C@@H]2O[C@H](C)C[C@H](N(C)C)[C@H]2O)[C@](C)(O)C[C@@H](C)CN(CCCNC(=O)Nc2ccc3c(c2)OCCCO3)[C@H](C)[C@@H](O)[C@]1(C)O.O=CO [Example 84]
0.142 (≈ 0.138 µM)	0.457 (≈ 0.445 µM)	0.207 (≈ 0.201 µM)	–	CC[C@H]1OC(=O)[C@H](C)[C@@H](O[C@H]2C[C@@](C)(OC)[C@@H](O)[C@H](C)O2)[C@H](C)[C@@H](O[C@@H]2O[C@H](C)C[C@H](N(C)C)[C@H]2O)[C@](C)(O)C[C@@H](C)CN(CCCNC(=O)Nc2ccc(OC)c(OC3CCCC3)c2)[C@H](C)[C@@H](O)[C@]1(C)O [Example 86]
